Source: patent US5053070A, “Pyrimidine derivatives, preparation processes thereof, herbicide containing the same, and herbicidal compositions containing the same along with other active ingredient” (Mitsui Toatsu Chemicals, Incorporated, priority 1988, dated 1991)

Assays:
Assay type in all cases: in vivo
rice [1] = assay: Treatment of soil under submerged condition, post-emergence (Test 5), injury; conditions: 30 g ai/a granule, 30 days later
Method in brief: (§1)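 Weeds seeded or tubers planted in flooded soil in Wagner pots, with 2–3-leaf rice seedlings transplanted in pairs and grown in greenhouse. At barnyardgrass two-leaf stage, pots received a granule of the test composition at a predetermined amount. Weed emergence and rice injury were scored 30 days later.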

common lambsquarters = assay: Upland soil application test (Test 2); conditions: 30 g ai/a, soil spray before emergence, 30 days later
Method in brief: (§2)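 Weed damage was rated at 30 days by comparing air-dried plant weights against untreated controls. Compound had been applied as a water-diluted wettable powder (10 l per are), sprayed on the soil surface one day after sowing, before emergence, with weed seed incorporated in upland field soil.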

green foxtail [2] = assay: Upland soil application test (Test 2); conditions: 30 g ai/a, soil spray before emergence, 30 days later
Method in brief: as §2

johnsongrass [3] = assay: Upland soil application test (Test 2); conditions: 30 g ai/a, soil spray before emergence, 30 days later
Method in brief: as §2

redroot pigweed [4] = assay: Upland soil application test (Test 2); conditions: 30 g ai/a, soil spray before emergence, 30 days later
Method in brief: as §2

foxtail meadow = assay: Upland soil application test (Test 2); conditions: 30 g ai/a, soil spray before emergence, 30 days later
Method in brief: as §2

barnyardgrass [5] = assay: Upland soil application test (Test 2); conditions: 30 g ai/a, soil spray before emergence, 30 days later
Method in brief: as §2

large crabgrass = assay: Upland soil application test (Test 2); conditions: 30 g ai/a, soil spray before emergence, 30 days later
Method in brief: as §2

peanut = assay: Upland foliar application test (Test 3), crop injury; conditions: 30 g ai/a, foliar spray at 2-3 leaves, 30th day
Method in brief: (§3)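 Scores record the degree of damage to weeds and injury to crops, observed 30 days after treatment. Each species was seeded in pots of upland-field soil and raised under glass to 2-3 leaves, then its foliage was sprayed with diluted compound emulsion at 5 l per are.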

soybean = assay: as above; conditions: 30 g ai/a, foliar spray at 2-3 leaves, 30th day
Method in brief: as §3

cotton = assay: as above; conditions: 30 g ai/a, foliar spray at 2-3 leaves, 30th day
Method in brief: as §3

rice [6] = assay: Treatment of soil under submerged condition, pre-emergence (Test 4), injury; conditions: 30 g ai/a granule, 30 days later
Method in brief: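 First, weed seeds or tubers are sown in soil kept submerged. Next, two pairs of rice seedlings at the 2–3 leaf stage are transplanted per pot and kept in a greenhouse. After one day, before weeds emerge, a granular formulation is applied; damage and injury are rated after 30 days.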

Sagittaria pygmaea = assay: Treatment of soil under submerged condition, post-emergence (Test 5); conditions: 30 g ai/a granule, 30 days later
Method in brief: as §1

bulrush = assay: as above; conditions: 30 g ai/a granule, 30 days later
Method in brief: as §1

barnyardgrass [7] = assay: as above; conditions: 30 g ai/a granule, post-emergence (barnyardgrass two-leaf stage), 30 days later
Method in brief: as §1

green foxtail [8] = assay: Upland foliar application test by mixed formulations (Test 7); conditions: applied alone, 30th day; for pest or weed control at 1000 g/ha / pest or weed control at 300 g/ha: Setaria viridis, 720 h, read-out: Herbicidal effects (%) Green foxtail Ea; for pest or weed control at 1000 g/ha: 1 kg/ha
Method in brief: (§4)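 Foliar spray of two-compound mixed emulsion, diluted with water, at 5 l per are via ULV sprayer onto weeds at 2–3 leaf stage in upland soil pots, greenhouse. Effect observed 30 days after spraying. Measured mixture activity (Ea) compared with Colby expected value (Ec) derived from single-ingredient growth inhibition rates.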

morningglories = assay: as above; conditions: Ipomoea, 720 h, applied alone, 30th day, read-out: Herbicidal effects (%) Morningglory Ea; for pest or weed control at 1000 g/ha: 1 kg/ha; for pest or weed control at 300 g/ha: 0.3 kg/ha
Method in brief: as §4

redroot pigweed [9] = assay: as above; conditions: Amaranthus retroflexus, 720 h, applied alone, 30th day, read-out: Herbicidal effects (%) Redrood pigweed Ea; for pest or weed control at 1000 g/ha: 1 kg/ha; for pest or weed control at 300 g/ha: 0.3 kg/ha
Method in brief: as §4

johnsongrass [10] = assay: as above; conditions: Sorghum halepense, 720 h, applied alone, 1 kg/ha, 30th day, read-out: Herbicidal effects (%) Johnsongrass Ea
Method in brief: as §4

Row | Compound | Injury Rice (rice [1]) | Herbicidal effects Common lambsquarters (common lambsquarters) | Herbicidal effects Green foxtail (green foxtail [2]) | Herbicidal effects Johnsongrass (johnsongrass [3]) | Herbicidal effects Redroot pigweed (redroot pigweed [4]) | Herbicidal effects Foxtail meadow (foxtail meadow) | Herbicidal effects Barnyardgrass (barnyardgrass [5]) | Herbicidal effects Large crabgrass (large crabgrass) | Injury Peanut (peanut) | Injury Soybean (soybean) | Injury Cotton (cotton) | Injury Rice (rice [6]) | Herbicidal effects Sagittaria Pygmaea (Sagittaria pygmaea) | Herbicidal effects Bulrush (bulrush) | Herbicidal effects Barnyardgrass (barnyardgrass [7]) | pest or weed control at 1000 g/ha (green foxtail [8]) [%] | pest or weed control at 1000 g/ha (morningglories) [%] | pest or weed control at 1000 g/ha (redroot pigweed [9]) [%] | pest or weed control at 300 g/ha (green foxtail [8]; 0.3 kg/ha) [%] | pest or weed control at 300 g/ha (morningglories) [%] | further results
1 | COc1cc(OC)nc(Oc2ccccc2C=NOCC=CCl)n1 [compound 11] | 0 (91-100 (No damages)) | 4 (6-10 (Severe damages)) | 5 (0-5 (Death)) | 5 (0-5 (Death)) | 5 (0-5 (Death)) | 5 (0-5 (Death)) | 5 (0-5 (Death)) | 5 (0-5 (Death)) | 0 (91-100 (No damages)) | 0 (91-100 (No damages)) | 0 (91-100 (No damages)) | 1 (71-90 (Slight damages)) | 4 (6-10 (Severe damages)) | 4 (6-10 (Severe damages)) | 5 (0-5 (Death)) | 10 | 0 | 30 | – | – | –
2 | COc1cc(OC)nc(Oc2ccccc2C=NOC2CCCCC2)n1 [Compound No. 3] | 0 (91-100 (No damages)) | 3 (11-40 (Medium damages)) | 4 (6-10 (Severe damages)) | 4 (6-10 (Severe damages)) | 3 (11-40 (Medium damages)) | 3 (11-40 (Medium damages)) | 3 (11-40 (Medium damages)) | 3 (11-40 (Medium damages)) | 0 (91-100 (No damages)) | 0 (91-100 (No damages)) | 0 (91-100 (No damages)) | 0 (91-100 (No damages)) | 3 (11-40 (Medium damages)) | 3 (11-40 (Medium damages)) | 3 (11-40 (Medium damages)) | 20 | 0 | – | – | – | pest or weed control at 1000 g/ha (johnsongrass [10]): 40%
3 | COc1cc(OC)nc(Oc2ccccc2C=NOCc2cccc(C)c2)n1 [compound 20] | 0 (91-100 (No damages)) | 4 (6-10 (Severe damages)) | 5 (0-5 (Death)) | 5 (0-5 (Death)) | 5 (0-5 (Death)) | 5 (0-5 (Death)) | 3 (11-40 (Medium damages)) | 5 (0-5 (Death)) | 0 (91-100 (No damages)) | 0 (91-100 (No damages)) | 0 (91-100 (No damages)) | 0 (91-100 (No damages)) | 4 (6-10 (Severe damages)) | 4 (6-10 (Severe damages)) | 5 (0-5 (Death)) | – | – | – | 10 | 10 | pest or weed control at 300 g/ha (redroot pigweed [9]): 30%
4 | COc1cc(OC)nc(Oc2ccccc2C=NOCC=Cc2ccccc2)n1 [Compound No. 9] | 0 (91-100 (No damages)) | 4 (6-10 (Severe damages)) | 5 (0-5 (Death)) | 5 (0-5 (Death)) | 5 (0-5 (Death)) | 5 (0-5 (Death)) | 5 (0-5 (Death)) | 5 (0-5 (Death)) | 0 (91-100 (No damages)) | 0 (91-100 (No damages)) | 0 (91-100 (No damages)) | 1 (71-90 (Slight damages)) | 5 (0-5 (Death)) | 5 (0-5 (Death)) | 5 (0-5 (Death)) | – | – | – | 70 | 0 | Herbicidal effects (%) Green foxtail Ea (green foxtail [8]; 0.3 kg/ha): 70%; pest or weed control at 300 g/ha (redroot pigweed [9]): 50%
5 | COc1cc(OC)nc(Oc2ccccc2C=NOCc2ccccc2)n1 [Compound No. 15] | 1 (71-90 (Slight damages)) | 4 (6-10 (Severe damages)) | 5 (0-5 (Death)) | 5 (0-5 (Death)) | 4 (6-10 (Severe damages)) | 5 (0-5 (Death)) | 5 (0-5 (Death)) | 4 (6-10 (Severe damages)) | 0 (91-100 (No damages)) | 0 (91-100 (No damages)) | 0 (91-100 (No damages)) | 1 (71-90 (Slight damages)) | 3 (11-40 (Medium damages)) | 4 (6-10 (Severe damages)) | 5 (0-5 (Death)) | 20 | 0 | 50 | – | – | –
6 | C#CCON=Cc1ccccc1Oc1nc(OC)cc(OC)n1 [Compound No. 13, 0-(2-propynyl)-2-(4,6-dimethoxy-2-pyrimidinyloxy)benzaldoxime] | 0 (91-100 (No damages)) | 4 (6-10 (Severe damages)) | 5 (0-5 (Death)) | 5 (0-5 (Death)) | 5 (0-5 (Death)) | 5 (0-5 (Death)) | 5 (0-5 (Death)) | 5 (0-5 (Death)) | 0 (91-100 (No damages)) | 0 (91-100 (No damages)) | 0 (91-100 (No damages)) | 1 (71-90 (Slight damages)) | 3 (11-40 (Medium damages)) | 4 (6-10 (Severe damages)) | 5 (0-5 (Death)) | 40 | 10 | 70 | – | – | –
